Key:
FAAH = test: Gene expression custom microarray, human skin keratinocytes (Example 2): FAAH; format: cell-based; conditions: 10 uM, 24 hr
Experimental: (§1) Cell cultures: A human skin keratinocyte cell culture (or cultures) is obtained through the ThermoFisher Scientific (Waltham, Mass.) or Promocell GmbH (Heidelberg, Germany). The initial culture was selected from one of the following, C055C, 3C0647, or
(§2) C12003. The cell lines were derived from donors as follows: C055C: Single donor adult 3C0647: Single donor adult, lightly pigmented C12003: Single donor adult
(§3) Culture media: Cells were grown in ready to use Keratinocyte Growth Medium 2 from Promocell GmbH (Heidelberg, Germany) containing basal media supplemented with Bovine Pituitary Extract 0.004 ml/ml, Epidermal Growth Factor (recombinant human) 0.125 ng/ml, Insulin (recombinant human) 5 μg/ml, Hydrocortisone 0.33 μg/ml, Epinephrine 0.39 μg/ml, Transferrin (recombinant human) 10 μg/ml, and CaCl2 0.06 mM. […] All cultures were incubated at 37° C. with 5% CO2 in a humidified chamber.
(§4) Experimental phase: The experimental phase was carried out in accordance with the protocol set forth in the experimental phase section of Example 1.
(§5) The genes tested: Tested genes were the same as tested in Example 1.
(§6) Performance of custom microarray: Performance of custom microarray was carried out in accordance with the protocol set forth in the performance of custom microarray section of Example 1. […]

MAGL = test: Gene expression custom microarray, human skin keratinocytes (Example 2): MAGL; format: cell-based; conditions: 10 uM, 24 hr
Experimental: as §1, §2, §3, §4, §5, §6

PTGS1 = test: Gene expression custom microarray, human skin keratinocytes (Example 2): PTGS1; format: cell-based; conditions: 10 uM, 24 hr
Experimental: as §1, §2, §3, §4, §5, §6

TRPA1 = test: Gene expression custom microarray, human skin keratinocytes (Example 2): TRPA1; format: cell-based; conditions: 10 uM, 24 hr
Experimental: as §1, §2, §3, §4, §5, §6

IL1A = test: Gene expression custom microarray, human skin keratinocytes (Example 2): IL1A; format: cell-based; conditions: 10 uM, 24 hr
Experimental: as §1, §2, §3, §4, §5, §6

TRPV1 [1] = test: Gene expression custom microarray, human skin keratinocytes (Example 2): TRPV1; format: cell-based; conditions: 10 uM, 24 hr
Experimental: as §1, §2, §3, §4, §5, §6

NFKB1 = test: Gene expression custom microarray, human skin keratinocytes (Example 2): NFKB1; format: cell-based; conditions: 10 uM, 24 hr
Experimental: as §1, §2, §3, §4, §5, §6

CNR2 = conditions: human skin keratinocytes, 10 uM, 24 hr
Experimental: as §1, §2, §3, §4, §5, §6

CNR1 = conditions: human skin keratinocytes, 10 uM, 24 hr
Experimental: as §1, §2, §3, §4, §5, §6

TRPM8 = test: Gene expression custom microarray, human skin keratinocytes (Example 2): TRPM8; format: cell-based; conditions: 10 uM, 24 hr
Experimental: as §1, §2, §3, §4, §5, §6

PPARG = test: Gene expression custom microarray, human skin keratinocytes (Example 2): PPARG; format: cell-based; conditions: 10 uM, 24 hr
Experimental: as §1, §2, §3, §4, §5, §6

TRPV1 [2] = test: Gene expression custom microarray, human skin fibroblasts (Example 1): TRPV1; format: cell-based; conditions: 10 uM, 24 hr
From the text: Cell cultures: A human skin fibroblast cell culture (or cultures) was obtained through the Coriell Cell Repository from the National Institute on Aging Cell Repository (Camden, N.J.), or Promocell GmbH (Heidelberg, Germany). The initial culture was selected from the following cell lines: AG13066, AG11557, AG11796 or GM03651E. The cell lines were derived from donors as follows:
Experimental phase: When the appropriate quantity of cells had been grown, they were detached as described above, but at the final step were seeded into each well of one or more 6 well dishes. Each well received 2 ml of the cell suspension so they were seeded equally. The dishes were returned to the incubator until 85-95% confluency was reached.
It is at this stage that all wells were rinsed in PBS after aspirating the growth media. The compound(s) to be tested were previously mixed into a suitable solvent (e.g., DMSO or ethanol) that can be diluted to the desired concentration of test compound (10 μl) in the culture wells without exceeding maximum solvent concentrations and adversely effecting cell viability, and mixed with basal media. NOTE: Standard maximum levels of solvent are 0.1% for DMSO and 0.5% for ETOH. The concentration of each test compound is found in Tables 1 & 2.
Every 2 wells on the 6 well plate served as a biological replicate for the purposes of RNA isolation and genetic expression evaluations making each 6 well dish an n=3 for the test compound(s) contained in the media. Negative control plates (no test compound(s) and only basal media) were also generated. The plates were returned to the incubator for 24 hrs.
At the end of the 24 hr time period, the plates were removed from the incubator, the test media aspirated, and the cells rinsed with PBS. RNA isolation is performed using the BioRad Aurum Total RNA Mini Kit (Hercules, Calif.) per manufacturer's protocol; which is described, in brief, below: • Add 350 μl of lysis buffer to each well. Pipet multiple times to ensure thorough lysis. Add lysed cells to the collection tube. • Add 350 μl of 70% ETOH to the collection tube and mix thoroughly. • Pipet the generated lysate onto the spin column placed in a new 2 ml tube. Centrifuge for 30 sec between 8,000 and 10,000 g. • Place the spin column containing the now bound RNA, in a new 2 ml tube. Add 700 μl of low stringency wash solution to the spin column. Centrifuge for 30 sec between 8,000 and 10,000 g. […] Allow 1 minute for saturation of the membrane and then centrifuge for 2 minutes to complete the RNA elution. • Quantify the quantity of RNA and store at −20 C° until use (no more than 1 month) […]

SMILES: C=C(C)[C@@H]1CCC(C)=C[C@H]1c1c(O)cc(CCCCC)cc1O [CBD, cannabidiol, reference compound]
- FAAH↓ gene expression, fold increase or decrease vs untreated cells (FAAH): −3.1 fold
- MAGL↓ gene expression, fold increase or decrease vs untreated cells (MAGL): −2.3 fold
- PTGS1↓ gene expression, fold increase or decrease vs untreated cells (PTGS1): 2.3 fold
- TRPA1↑ gene expression, fold increase or decrease vs untreated cells (TRPA1): −1.7 fold
- IL1A↓ gene expression, fold increase or decrease vs untreated cells (IL1A): −1.8 fold
- TRPV1↑ gene expression, fold increase or decrease vs untreated cells (TRPV1 [1]): 2.2 fold
- NFKB1↓ gene expression, fold increase or decrease vs untreated cells (NFKB1): −1.3 fold
- CNR2↑ gene expression, fold increase or decrease vs untreated cells (CNR2): 0 fold
- CNR1↑ gene expression, fold increase or decrease vs untreated cells (CNR1): 2.6 fold
- TRPM8↑ gene expression, fold increase or decrease vs untreated cells (TRPM8): 2.5 fold
- PPARG↑ gene expression, fold increase or decrease vs untreated cells (PPARG): −4.7 fold

SMILES: CCCCCCCCCCCCCCCC(=O)NCCO [N-palmitoylethanolamide]
- TRPV1↑ gene expression, fold increase or decrease vs untreated cells (TRPV1 [2]): −3.2 fold

From patent US20220202739A1, “ENDOCANNABINOID MIMETIC AND ANTI-INFLAMMATORY COMPOUND CONTAINING COMPOSITIONS, METHODS OF PREPARATION AND USES THEREOF” (priority 2019, published 2022)
